This note sets out measurements from patent US10004732B2 (Novartis AG, priority 2014, dated 2018).

Data set [1] addresses T1, PI 3-kinase alpha (Homo sapiens, UniProt P42336). The experiment in a line: Kinase Glo Luminescent Kinase Assay (Kglo), assay A. The class given is biochemical. The conditions noted are these: read-out: Assay A PI3Kα IC50. On the technique in general: In Kinase-Glo more light means more ATP remaining.
Target sequence in this assay (P42336 whole entry): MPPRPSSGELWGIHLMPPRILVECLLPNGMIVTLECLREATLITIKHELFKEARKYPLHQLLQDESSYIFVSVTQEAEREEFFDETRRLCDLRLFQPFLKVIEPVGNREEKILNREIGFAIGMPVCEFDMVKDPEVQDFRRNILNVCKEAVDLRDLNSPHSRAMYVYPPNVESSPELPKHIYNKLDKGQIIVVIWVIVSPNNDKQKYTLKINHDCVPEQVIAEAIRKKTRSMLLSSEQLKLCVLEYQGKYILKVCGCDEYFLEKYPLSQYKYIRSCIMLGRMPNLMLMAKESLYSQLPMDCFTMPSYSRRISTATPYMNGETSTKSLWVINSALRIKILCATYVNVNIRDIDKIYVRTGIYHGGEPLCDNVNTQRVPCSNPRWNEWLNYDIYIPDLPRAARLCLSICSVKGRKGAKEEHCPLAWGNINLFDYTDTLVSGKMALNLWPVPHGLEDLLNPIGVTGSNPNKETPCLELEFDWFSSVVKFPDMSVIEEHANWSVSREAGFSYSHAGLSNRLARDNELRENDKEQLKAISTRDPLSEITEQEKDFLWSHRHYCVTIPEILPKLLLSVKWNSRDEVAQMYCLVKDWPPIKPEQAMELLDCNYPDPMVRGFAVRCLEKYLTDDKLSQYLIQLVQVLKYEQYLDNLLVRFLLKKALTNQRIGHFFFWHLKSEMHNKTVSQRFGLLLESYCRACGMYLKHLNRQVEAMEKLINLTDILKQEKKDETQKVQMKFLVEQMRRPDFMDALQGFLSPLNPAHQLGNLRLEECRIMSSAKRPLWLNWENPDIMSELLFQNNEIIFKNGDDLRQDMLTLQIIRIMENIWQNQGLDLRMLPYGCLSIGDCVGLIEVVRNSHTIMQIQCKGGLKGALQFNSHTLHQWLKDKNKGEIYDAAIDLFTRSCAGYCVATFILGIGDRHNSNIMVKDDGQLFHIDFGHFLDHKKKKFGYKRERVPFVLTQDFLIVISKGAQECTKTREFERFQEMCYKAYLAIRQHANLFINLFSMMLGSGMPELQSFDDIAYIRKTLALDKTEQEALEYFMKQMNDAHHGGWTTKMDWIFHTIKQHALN
The target of data set [2] is T2, PI 3-kinase beta (Homo sapiens, UniProt P42338). The experiment in a line: Kinase Glo Luminescent Kinase Assay (Kglo), assay B. The class given is biochemical. The conditions noted are these: read-out: Assay B PI3Kβ IC50.
Target sequence in this assay (P42338 whole entry): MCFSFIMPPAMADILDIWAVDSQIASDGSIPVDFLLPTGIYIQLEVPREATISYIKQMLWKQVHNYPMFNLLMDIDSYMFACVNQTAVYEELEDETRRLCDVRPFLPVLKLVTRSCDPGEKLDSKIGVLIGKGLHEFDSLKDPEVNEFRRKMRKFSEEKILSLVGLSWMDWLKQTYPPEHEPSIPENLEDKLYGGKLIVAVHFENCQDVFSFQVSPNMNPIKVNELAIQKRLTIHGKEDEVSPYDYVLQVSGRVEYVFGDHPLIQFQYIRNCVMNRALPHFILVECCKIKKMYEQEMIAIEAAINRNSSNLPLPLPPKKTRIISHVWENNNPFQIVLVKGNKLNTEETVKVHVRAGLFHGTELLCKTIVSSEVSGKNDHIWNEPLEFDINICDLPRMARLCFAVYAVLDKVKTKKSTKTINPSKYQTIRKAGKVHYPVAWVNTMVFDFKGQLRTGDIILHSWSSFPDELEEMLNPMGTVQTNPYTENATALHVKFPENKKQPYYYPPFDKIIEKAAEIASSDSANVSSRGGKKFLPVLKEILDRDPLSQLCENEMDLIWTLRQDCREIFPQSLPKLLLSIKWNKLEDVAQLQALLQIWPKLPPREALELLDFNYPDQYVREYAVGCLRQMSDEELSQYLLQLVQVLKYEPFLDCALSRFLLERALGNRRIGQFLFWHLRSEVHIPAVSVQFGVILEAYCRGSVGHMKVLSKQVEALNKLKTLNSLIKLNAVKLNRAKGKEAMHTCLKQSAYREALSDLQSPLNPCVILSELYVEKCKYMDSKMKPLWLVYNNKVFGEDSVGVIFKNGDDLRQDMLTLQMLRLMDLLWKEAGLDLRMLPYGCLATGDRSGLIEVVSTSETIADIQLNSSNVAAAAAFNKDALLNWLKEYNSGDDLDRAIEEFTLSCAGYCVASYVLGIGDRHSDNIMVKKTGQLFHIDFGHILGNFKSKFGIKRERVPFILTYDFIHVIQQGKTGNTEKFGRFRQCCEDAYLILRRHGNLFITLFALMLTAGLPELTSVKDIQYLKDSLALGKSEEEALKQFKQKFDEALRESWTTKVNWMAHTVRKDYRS
Target sequence in this assay (P27986 461-568 partner): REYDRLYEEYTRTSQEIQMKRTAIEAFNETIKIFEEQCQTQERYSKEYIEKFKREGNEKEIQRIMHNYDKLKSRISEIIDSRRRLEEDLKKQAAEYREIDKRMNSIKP
Data set [3] concerns the target Vps34 (Homo sapiens, UniProt Q8NEB9). The experiment in a line: Kinase Glo Luminescent Kinase Assay (Kglo), assay C. The class given is biochemical. The conditions noted are these: read-out: Assay C VPS34 IC50.
Data set [4] concerns the target PI 4-kinase beta (Homo sapiens, UniProt Q9UBF8). As to the kind of experiment: Kinase Glo Luminescent Kinase Assay (Kglo), assay D. The format is biochemical. Particulars: read-out: Assay D PI4Kβ IC50.
In data set [5] the target is T3, PI 3-kinase gamma (Homo sapiens, UniProt P48736). As to the kind of experiment: TR-FRET Adapta assay, assay E. The class given is biochemical. The conditions noted are these: read-out: Assay E PI3Kγ IC50. In general terms: In TR-FRET formats the signal depends on donor and acceptor labels being close together.
T3 sequence (P48736 whole entry): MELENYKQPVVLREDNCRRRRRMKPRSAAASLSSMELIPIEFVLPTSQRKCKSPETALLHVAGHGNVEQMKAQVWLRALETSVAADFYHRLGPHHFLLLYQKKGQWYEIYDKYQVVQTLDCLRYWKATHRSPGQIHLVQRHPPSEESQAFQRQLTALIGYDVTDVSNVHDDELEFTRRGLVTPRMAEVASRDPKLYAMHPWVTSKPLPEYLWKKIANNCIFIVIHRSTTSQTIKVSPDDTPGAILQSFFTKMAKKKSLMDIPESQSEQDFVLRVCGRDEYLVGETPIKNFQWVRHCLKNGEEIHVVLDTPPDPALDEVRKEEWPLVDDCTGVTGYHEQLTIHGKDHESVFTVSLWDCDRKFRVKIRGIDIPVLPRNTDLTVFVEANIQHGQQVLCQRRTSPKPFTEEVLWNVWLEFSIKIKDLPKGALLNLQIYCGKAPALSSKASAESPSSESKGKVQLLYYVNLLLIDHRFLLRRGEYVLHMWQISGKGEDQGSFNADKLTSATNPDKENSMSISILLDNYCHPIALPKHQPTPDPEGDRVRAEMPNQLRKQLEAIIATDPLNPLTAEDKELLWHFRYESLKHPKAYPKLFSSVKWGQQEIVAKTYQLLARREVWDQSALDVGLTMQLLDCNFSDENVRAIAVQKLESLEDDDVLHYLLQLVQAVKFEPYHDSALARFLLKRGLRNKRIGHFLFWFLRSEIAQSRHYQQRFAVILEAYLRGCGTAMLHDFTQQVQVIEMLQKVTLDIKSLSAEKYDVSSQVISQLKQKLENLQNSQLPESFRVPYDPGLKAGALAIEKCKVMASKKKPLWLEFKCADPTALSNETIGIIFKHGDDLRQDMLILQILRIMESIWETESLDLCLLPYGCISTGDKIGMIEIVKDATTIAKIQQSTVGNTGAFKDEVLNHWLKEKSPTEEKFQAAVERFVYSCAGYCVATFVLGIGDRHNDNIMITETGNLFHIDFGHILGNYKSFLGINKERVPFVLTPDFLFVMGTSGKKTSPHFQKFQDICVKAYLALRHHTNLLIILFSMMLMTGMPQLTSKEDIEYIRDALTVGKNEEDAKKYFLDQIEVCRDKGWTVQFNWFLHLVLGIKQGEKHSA
Data set [6] concerns the target mTOR (Homo sapiens, UniProt P42345). The experiment in a line: Lanthascreen kinase binding assay, assay G. The conditions noted are these: read-out: Assay G mTOR IC50.
Experimental: Lanthascreen™ Kinase Binding Assay for mTOR (G)
Binding of an inhibitor to the kinase competes for binding with the tracer, resulting in a loss of FRET.
50 nL of compound dilutions were dispensed onto white 384-well small volume polystyrene plate.
Data set [7] addresses T1, PI 3-kinase alpha. As to the kind of experiment: Cellular assay H1, p-Akt (S473) in Rat-1 cells, Surefire format. Particulars: non-asterisked data: version H1 (Surefire format), Rat-1 cells; read-out: Assay H PI3Kα IC50. The class given is cell-based.
Target sequence in this assay (P42336 whole entry): as the sequence (P42336 whole entry) above
Target sequence in this assay (Q63787 whole entry partner): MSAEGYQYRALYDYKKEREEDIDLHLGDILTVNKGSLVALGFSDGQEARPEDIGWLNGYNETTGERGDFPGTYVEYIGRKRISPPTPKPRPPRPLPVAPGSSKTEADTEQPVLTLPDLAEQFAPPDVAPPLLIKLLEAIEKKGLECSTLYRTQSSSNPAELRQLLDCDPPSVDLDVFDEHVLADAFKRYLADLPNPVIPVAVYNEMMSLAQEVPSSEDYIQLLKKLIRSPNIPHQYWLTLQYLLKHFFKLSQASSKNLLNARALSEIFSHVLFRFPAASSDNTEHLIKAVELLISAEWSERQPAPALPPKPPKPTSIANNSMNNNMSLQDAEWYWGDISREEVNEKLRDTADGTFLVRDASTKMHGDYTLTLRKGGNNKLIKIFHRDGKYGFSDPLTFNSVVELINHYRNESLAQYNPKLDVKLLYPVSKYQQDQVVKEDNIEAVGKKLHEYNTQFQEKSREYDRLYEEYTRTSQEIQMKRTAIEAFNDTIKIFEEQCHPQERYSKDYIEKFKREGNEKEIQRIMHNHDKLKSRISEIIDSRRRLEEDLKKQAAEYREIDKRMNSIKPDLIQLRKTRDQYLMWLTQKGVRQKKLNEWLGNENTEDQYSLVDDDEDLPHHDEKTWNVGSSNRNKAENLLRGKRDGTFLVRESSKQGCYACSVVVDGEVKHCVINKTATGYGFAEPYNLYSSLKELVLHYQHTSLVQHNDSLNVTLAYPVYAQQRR
Data set [8] deals with T2, PI 3-kinase beta. The experiment in a line: Cellular assay I1, p-Akt (S473) in Rat-1 cells, Surefire format. The class given is cell-based. The conditions noted are these: non-asterisked data: version I1 (Surefire format), Rat-1 cells; read-out: Assay I PI3Kβ IC50.
Target sequence in this assay (P42338 whole entry): as the sequence (P42338 whole entry) above
Target sequence in this assay (Q63787 whole entry partner): as the sequence (Q63787 whole entry partner) above
Data set [9] addresses T4, PI 3-kinase delta (Homo sapiens, UniProt O00329). The experiment in a line: Cellular assay J1, p-Akt (S473) in Rat-1 cells, Surefire format. Particulars: non-asterisked data: version J1 (Surefire format), Rat-1 cells; read-out: Assay J PI3Kδ IC50. The class given is cell-based.
Text: Cellular Assays for PI 3-Kinase Alpha (H1), Beta (I1) and Delta (J1): Surefire Format
AlphaScreen (Amplified Luminescent Proximity Homogeneous Assay, ALPHA, Perkin Elmer) is a non-radioactive bead-based proximity assay technology to study biomolecular interactions in a homogenous microtiter plate format. The brand name SureFire denotes AlphaScreen assays that are adapted to quantify the phosphorylation of endogenous cellular proteins in cell lysates, by using matched antibody pairs, which consist of an anti-phospho-kinase and an anti-kinase antibody. The assay allows characterization of kinase signaling in cells as well as measurement of kinase inhibitor effects.
Using Rat-1 cells stably expressing myr-HA-tagged versions of the human PI3Kdelta, PI3Kalpha, or PI3Kbeta p110 catalytic subunit isoforms, the assay was developed as a two-plate protocol in a 384-well format.
For compound testing, the cells were seeded at a density of 4000 (Rat-1_PI3Kdelta), 7500 (Rat-1_PI3Kalpha), or 6200 (Rat-1_PI3Kbeta) cells in 20 μl complete growth medium into cell culture treated 384-well plates and were grown at 37° C./5% CO2/90% humidity for 24 h. Shortly before compound transfer, the complete medium was removed, 30 μl assay buffer (DMEM high glucose, 1×MEM NEAA, 10 mM HEPES, 2 mM L-glutamine, 0.1% (w/v) BSA) was added and 10 μl of the compound predilutions were transferred to the cells.
The target of data set [10] is T3, PI 3-kinase gamma. As to the kind of experiment: Cellular U937 AKT assay K1 (MSD). The class given is cell-based. Particulars: U937 cells, K1 format; read-out: Assay K1 PI3Kγ IC50.
Data set [11] deals with IL-8-induced neutrophil shape change in human whole blood. The experiment in a line: Whole blood neutrophil shape change assay (L). The class given is cell-based. The conditions noted are these: Homo sapiens, Neutrophil, IL-8, human whole blood, read-out: Assay L WBSC IC50.
Experimental: Whole Blood Neutrophil Shape Change Assay (L)
IL-8 was made up to 2 μM stocks in 0.1% bovine serum albumin/PBS and stored at −80° C. On the day IL-8 was diluted in PBS (phosphate buffered saline) 10 minutes before use. IL-8 was used at final concentration of 2 nM and a concentration range from 0.003 to 200 nM for the donor dose response curve.
Assay fixative solution was prepared fresh each day from 10× concentrated CellFIX™ solution diluted 1:10 in sterile distilled water and then 1:4 with PBS. Assay fixative solution was kept on ice prior to use.
A 10× lysis buffer was prepared in advance by dissolving 20.75 g NH4Cl and 2.5 g KHCO3 in 250 ml sterile H2O. This 10× lysis buffer was filtered under sterile conditions and stored for up to two weeks at 4° C. On the day a 1× lysis solution was prepared with sterile distilled H2O and kept on ice prior to use.
The test compounds were prepared as 10 mM stock solutions in 100% DMSO and were stored at 4° C. Once in use for an assay 10 mM stock compounds were thawed and stored at RT protected from light. Compound dilutions were prepared fresh on the day. The first series of dilutions in 100% DMSO were done first thing in the morning. Only once blood had been collected and arrived in laboratory was the next set of dilutions into PBS carried out (1:10 PBS, 10% DMSO). This limited the exposure of diluted compound to plastic and made sure the exposure timing was consistent between assays.
Compound dilutions in 100% DMSO were prepared as described previously. Human whole blood was collected in K2 EDTA Vacutainers. Once blood was in the laboratory, compound dilutions into PBS were carried out as described previously and depicted in Table 1.
The outer wells of the deep well assay plate were filled with 1200 μl of sterile distilled H2O in an effort to limit edge effects (rows A1-H1, A1-A12, A12-H12).
An IL-8 dose response was determined for each blood donor examined, to monitor the donor response to IL-8. At this step in assay preparation for the IL-8 dose response samples 10 μl of PBS was added to designated wells. In addition the assay window without DMSO was also assessed each day. For such samples at this step in assay preparation 10 μl of PBS was added in the place of 10% DMSO.
Lids were placed on the 96 well plates and samples were incubated for 15 minutes at 37° C. in a water-bath.
Following the compound pre-incubation 10× final IL-8 was added to appropriate wells (10 μl of 20 nM working stock IL-8, final IL-8 concentration in blood=2 nM) and 10 μl of PBS was added to the un-stimulated controls. 10× final dose response range IL-8 was also added to designated wells (final concentration range on assay plate was 200 nM to 0.0005 nM, 1:5 serial dilution in PBS). The IL-8 and PBS were added to appropriate wells across all assay plates in the same sequence as the blood to compound addition. […] Samples were incubated for 5 minutes at 37° C. in a water-bath. Following the incubation sample plates were transferred to ice where 250 μl of chilled Assay Fixative Buffer was added promptly to all wells.
Samples were incubated on ice for 7 minutes (no mixing). […] Once added samples were mixed once and incubated on ice for 30 minutes to achieve uniform red blood cells lysis. After lysis, 200 μl of sample was transferred to a 96 well microplate on ice. […] Granulocytes were identified based on differential side scatter (SSC) and forward scatter (FSC) characteristics.
For data set [12], the target named is T4, PI 3-kinase delta. As to the kind of experiment: TR-FRET Adapta assay, assay F. Particulars: read-out: Assay F PI3Kδ IC50.
A short description of data set [13]: Microsomal clearance assay (M). Particulars: intrinsic clearance in rat liver microsomes. A general note: Liver microsomes are vesicles of endoplasmic reticulum, rich in cytochrome P450 enzymes.
Experimental: The experiments were performed in 96-well glass plates at 37° C. on an automated Tecan EVO platform. Test compounds at a concentration of 10 mM in pure DMSO were diluted 1:1000 in water to 10 μM. […] Reactions were initiated by the addition of 150 μL of a cofactor solution containing 2 mM NADPH.

Chain of Vps34 (Q8NEB9 whole entry, species assumed): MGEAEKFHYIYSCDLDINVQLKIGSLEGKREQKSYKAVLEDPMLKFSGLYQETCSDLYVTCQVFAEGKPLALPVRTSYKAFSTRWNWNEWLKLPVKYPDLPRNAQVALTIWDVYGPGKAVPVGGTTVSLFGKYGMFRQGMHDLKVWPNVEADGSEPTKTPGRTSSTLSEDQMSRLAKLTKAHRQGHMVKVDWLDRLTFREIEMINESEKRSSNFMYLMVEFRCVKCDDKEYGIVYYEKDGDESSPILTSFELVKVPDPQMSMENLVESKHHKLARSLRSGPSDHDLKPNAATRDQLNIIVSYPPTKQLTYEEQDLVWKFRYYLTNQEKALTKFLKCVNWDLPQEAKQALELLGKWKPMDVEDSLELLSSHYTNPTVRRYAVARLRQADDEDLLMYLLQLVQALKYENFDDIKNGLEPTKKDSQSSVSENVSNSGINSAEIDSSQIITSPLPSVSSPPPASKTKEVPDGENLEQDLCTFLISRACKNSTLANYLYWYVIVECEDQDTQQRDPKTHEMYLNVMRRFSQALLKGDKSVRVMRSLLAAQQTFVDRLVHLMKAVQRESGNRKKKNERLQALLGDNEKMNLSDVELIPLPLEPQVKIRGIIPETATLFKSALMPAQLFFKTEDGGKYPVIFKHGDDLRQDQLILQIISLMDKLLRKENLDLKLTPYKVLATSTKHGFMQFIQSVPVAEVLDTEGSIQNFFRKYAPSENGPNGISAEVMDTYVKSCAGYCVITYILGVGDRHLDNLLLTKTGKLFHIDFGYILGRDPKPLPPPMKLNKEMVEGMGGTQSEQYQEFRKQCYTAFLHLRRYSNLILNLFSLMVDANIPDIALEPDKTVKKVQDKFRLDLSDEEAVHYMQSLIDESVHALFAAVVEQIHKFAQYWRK

The term IC50 denotes the concentration at which inhibition is half-maximal. As for `Cc1cc(F)c(S(=O)(=O)NCCCO)cc1-c1cnc(N)c(-c2cnn(C)c2)n1` [Example 114, 5-(5-Amino-6-(1-methyl-1H-pyrazol-4-yl)pyrazin-2-yl)-2-fluoro-N-(3-hydroxypropyl)-4-methylbenzenesulfonamide], the half-maximal inhibitory concentration (IC50) in data set [1] is 0.29 µM; in [2], 3.7 µM; in [3], 7.83 µM; in [4], 5.9 µM; in data set [5], 0.044 µM; in data set [6] it was above 9.1 µM. The IC50 in [7] is 5.43 µM; in data set [8] it was above 3 µM; in data set [9], 7.99 µM; in [10], 0.177 µM; in data set [11], 0.499 µM; in [12] it was 1.19 µM. Besides, the “Assay M RLM CI(int)” value in data set [13] came to 17 µL/min/mg.

As to `Cc1cc(F)c(S(=O)(=O)NCCC(C)(C)O)cc1-c1cnc(N)c(-c2cnn(C)c2)n1` [Example 115, 5-(5-Amino-6-(1-methyl-1H-pyrazol-4-yl)pyrazin-2-yl)-2-fluoro-N-(3-hydroxy-3-methylbutyl)-4-methylbenzenesulfonamide], the IC50 in [1] was determined as 0.32 µM; in data set [2] it was 2.35 µM; in [3] it was 8.99 µM; in data set [4] it was 5.64 µM; in [5], 0.039 µM; in data set [6] it was 8.64 µM. For the same compound, the IC50 stood at 2.98 µM in data set [7]; 3.53 µM in [8]; 2.21 µM in data set [9]; 0.117 µM in [10]; 1.11 µM in data set [11]; 0.48 µM in data set [12]. Further, the “Assay M RLM CI(int)” value in data set [13] came to 38 µL/min/mg.

`Cc1ncc(-c2nc(-c3cc(S(=O)(=O)N4CCNC(C(F)(F)F)C4)ccc3C)cnc2N)s1` (stereo not drawn) [Example 118, 5-(2-Methyl-5-(3-(trifluoromethyl)piperazin-1-ylsulfonyl)phenyl)-3-(2-methylthiazol-5-yl)pyrazin-2-amine]: the half-maximal inhibitory concentration (IC50) is 0.03 µM in data set [1]; 0.47 µM in data set [2]; 1.46 µM in [3]; 4.72 µM in data set [4]; 0.011 µM in [5]; 0.46 µM in data set [6]. Also, the IC50 in data set [7] turned out to be 0.63 µM; in data set [8] it was 1.59 µM; in data set [9], 0.53 µM; in data set [10] it was 0.102 µM; in data set [11] it was 0.898 µM; in [12], 0.13 µM. Besides, the “Assay M RLM CI(int)” value in [13] came to 264 µL/min/mg.

Regarding `COc1ccncc1-c1nc(-c2cc(S(=O)(=O)NCCC(C)(C)O)ccc2C)cnc1N` [Example 119.2], the IC50 in data set [1] is 0.45 µM; in [2], above 9.1 µM; in data set [3], above 9.1 µM; in data set [4], above 9.1 µM; in [5] it was 0.05 µM; in [6], above 9.1 µM. For the same compound, the IC50 in data set [7] was determined as 2.74 µM; in [8], 4.07 µM; in data set [9], 2.38 µM; in [10], 0.333 µM; in data set [11], 2.18 µM; in data set [12] it was 0.25 µM. Besides, the “Assay M RLM CI(int)” value in [13] was found to be 101 µL/min/mg.

Regarding `Cc1ccc(S(=O)(=O)NCCC(C)(C)O)cc1-c1cnc(N)c(-c2cnn(C)c2)n1` [Example 119.16], the IC50 in [1] was 0.39 µM; in data set [2] it was 3.79 µM; in [3], 6.23 µM; in data set [4] it was 6.61 µM; in [5], 0.022 µM; in [6] it was above 9.1 µM. Also, the IC50 was 4.01 µM in [7]; 3.7 µM in [8]; 2.35 µM in data set [9]; 0.081 µM in [10]; 1.24 µM in data set [11]; 0.19 µM in data set [12]. In addition, the “Assay M RLM CI(int)” value in data set [13] was 21 µL/min/mg.

Take `Cc1ccc(S(=O)(=O)NCCC(C)(C)O)cc1-c1cnc(N)c(-c2ccncc2)n1` [Example 119.27]: the IC50 in data set [1] was 0.17 µM; in data set [2], 4.97 µM; in data set [3], above 9.1 µM; in data set [4], 5.75 µM; in data set [5], 0.035 µM; in data set [6] it was 4.78 µM. For the same compound, the IC50 is 0.47 µM in data set [7]; 9.24 µM in data set [8]; 0.91 µM in data set [9]; 0.128 µM in data set [10]; 0.726 µM in data set [11]; 0.12 µM in data set [12]. Moreover, the “Assay M RLM CI(int)” value in [13] turned out to be 87 µL/min/mg.

For the compound `Cc1cc(-c2nc(-c3cc(S(=O)(=O)NCCC(C)(C)O)ccc3C)cnc2N)ccn1` [Example 119.28], the IC50 in data set [1] was 0.23 µM; in data set [2] it was 7.38 µM; in data set [3] it was above 9.1 µM; in data set [4] it was 4.41 µM; in [5], 0.049 µM; in [6] it was 6 µM. The IC50 is 1.25 µM in data set [7]; above 10 µM in data set [8]; 2.15 µM in data set [9]; 0.179 µM in data set [10]; 0.963 µM in data set [11]; 0.19 µM in data set [12]. Further, the “Assay M RLM CI(int)” value in data set [13] is 44 µL/min/mg.

Consider `Cc1ccc(S(=O)(=O)NCCC(C)(C)O)cc1-c1cnc(N)c(-c2cnn(C(C)C)c2)n1` [Example 119.31], for which the IC50 in [1] is 0.16 µM; in [2], 7.85 µM; in data set [3], above 9.1 µM; in data set [4], 3.74 µM; in data set [5] it was 0.007 µM; in [6], 2.23 µM. The IC50 in data set [7] came out at 2.83 µM; in [8] it was 6.99 µM; in data set [9], 1.24 µM; in data set [10], 0.046 µM; in data set [11], 1.66 µM; in [12], 0.11 µM. Besides, in data set [13], the “Assay M RLM CI(int)” value was determined as 79 µL/min/mg.

For the compound `Cc1ccc(S(=O)(=O)NCCC(C)(C)O)cc1-c1cnc(N)c(-c2cn[nH]c2)n1` [Example 119.33], the 50% inhibitory concentration (IC50) in [1] was 0.16 µM; in [2] it was 0.69 µM; in data set [3] it was above 9.1 µM; in [4] it was 1 µM; in data set [5] it was 0.014 µM; in [6] it was above 9.1 µM. Moreover, the half-maximal inhibitory concentration (IC50) in data set [7] is 5.51 µM; in data set [8], above 10 µM; in data set [9], 3.59 µM; in [10], 0.73 µM; in data set [11], 0.601 µM; in data set [12], 0.26 µM. Besides, in data set [13], the “Assay M RLM CI(int)” value came to 50 µL/min/mg.

In the case of `CCn1cc(-c2nc(-c3cc(S(=O)(=O)NCCC(C)(C)O)ccc3C)cnc2N)cn1` [Example 119.34], the concentration for half-maximal inhibition (IC50) in [1] is 0.18 µM; in [2], 3.51 µM; in data set [3], above 9.1 µM; in [4], 4.25 µM; in data set [5] it was 0.013 µM; in [6] it was 6.59 µM. In addition, the half-maximal inhibitory concentration (IC50) is 2.27 µM in data set [7]; 7.42 µM in data set [8]; 1.27 µM in [9]; 0.041 µM in data set [10]; 1.49 µM in data set [11]; 0.22 µM in data set [12]. Moreover, the “Assay M RLM CI(int)” value in data set [13] came to 49 µL/min/mg.

As to `Cc1ccc(S(=O)(=O)NCCC(C)(C)O)cc1-c1cnc(N)c(-c2cnn(Cc3ccccn3)c2)n1` [Example 119.37], the IC50 in data set [1] is 0.18 µM; in [2] it was 3 µM; in data set [3], above 9.1 µM; in data set [4] it was 5.3 µM; in [5] it was 0.024 µM; in [6], above 9.1 µM. Moreover, the IC50 in data set [7] amounted to 3.02 µM; in data set [8] it was 2.87 µM; in data set [9], 1.14 µM; in data set [10], 0.093 µM; in data set [11] it was 0.581 µM; in [12], 0.04 µM. The “Assay M RLM CI(int)” value in [13] was 78 µL/min/mg.

Turning to `Cc1ccc(S(=O)(=O)NOCC(C)(C)O)cc1-c1cnc(N)c(-c2cn(C)nc2C)n1` [Example 125, 3-(5-Amino-6-(1,3-dimethyl-1H-pyrazol-4-yl)pyrazin-2-yl)-N-(2-hydroxy-2-methylpropoxy)-4-methylbenzenesulfonamide], the IC50 was 0.28 µM in data set [1]; 6 µM in [2]; above 10 µM in [3]; 7.6 µM in data set [4]; 0.1 µM in data set [5]; above 10 µM in data set [6]. Moreover, the half-maximal inhibitory concentration (IC50) in data set [7] came to 2.81 µM; in data set [8] it was 3.47 µM; in [9], 0.23 µM; in data set [10] it was 0.051 µM; in data set [11] it was 0.879 µM; in data set [12], 0.13 µM. Also, the “Assay M RLM CI(int)” value in data set [13] was 8 µL/min/mg.
